Measured values taken from US11230542B2, “Inhibitors of integrated stress response pathway” (Praxis Biotech LLC, priority 2017, dated 2022).
Read-outs that look alike come from different tables or passages of the source.

Key:
ATF4 = ATF4 expression inhibition assay (thapsigargin-stressed HEK293T cells, western blot); type: cell-based; conditions: Homo sapiens, HEK-293T; for inhibition at 0.1 µM: 3 h with 100 nM thapsigargin (Tg) and 100 nM test compound; for inhibition at 0.1 µM / inhibition at 1 µM: Tg alone 0%, untreated 100%; for inhibition at 1 µM: 3 h with 100 nM thapsigargin (Tg) and 1 μM test compound; for IC50: 3 h with 100 nM Tg, test compound 1 nM to 1 μM
Description: HEK293T cells were maintained at 37° C. and 5% CO2 in Dulbecco's Modified Eagle's Media (DMEM) supplemented with 10% fetal bovine serum (FBS), 2 mM L-glutamine, 100 U/ml penicillin, and 100 μg/ml streptomycin. […] Cells without treatment or cells treated with Tg alone were used as controls.
After 3 hours of treatment with Tg and the test compound, cells were lysed with SDS-PAGE lysis buffer. Lysates were transferred to 1.5 ml tubes and sonicated for 3 min, and total protein amounts were quantified using BCA Protein Assay Kit (Pierce). Equal amount of proteins were loaded on SDS-PAGE gels. Proteins were transferred onto 0.2 μm PVDF membranes (BioRad) and probed with primary antibodies diluted in Tris-buffered saline supplemented with 0.1% Tween 20 and 3% bovine serum albumin.
(§1) ATF4 (11815) antibody was used as primary antibody (Cell Signaling Technologies). A horseradish peroxidase (HRP)-conjugated secondary antibody (Rockland) was employed to detect immune-reactive bands using enhanced chemiluminescence (ECL Western Blotting Substrate, Pierce). Quantification of protein bands was done by densitometry using ImageJ.
Percentages of ATF4 inhibition after induction with Tg in the presence of 100 nM or 1 μM of certain test compounds are shown in Table 2 and FIG. 1. Percentage of ATF4 inhibition was calculated as the percent reduction normalized to Tg treatment (0% inhibition) and untreated cells (100% inhibition). Also shown in Table 2 is the calculated IC50 for the test compounds. […] Accordingly, inhibition of ATF4 expression as a result of the test compound indicates suppression of the ISR pathway.

CHO cells = test: Protein translation assay (puromycin incorporation in CHO cells, unstressed or Tg-stressed); type: cell-based, Chinese hamster; conditions: for activity at 0.1 µM / activity at 1 µM: Cricetulus griseus, media alone 100%; for activity at 0.1 µM: read-out: % Recovery of protein expression (100 nM test compound); for protein translation: summary of Table 3; for protein synthesis in a cell versus ATF4 translation: under ISR-stressed or non-ISR stressed conditions
Description: CHO cells were maintained at 37° C. and 5% CO2 in DMEM supplemented with 10% fetal bovine serum (FBS), 2 mM L-glutamine, 100 U/ml penicillin, and 100 μg/ml streptomycin. After reaching 80% of confluence, cells were detached and seeded on 6 well plates in complete media, allowed to recover overnight and treated for 2 hours with 1 μM of the test compound (to assess protein synthesis levels in unstressed condition), or for 1 hour with 100 nM and 1 μM of the test compound and then co-treated with 300 nM Tg and 100 nM and 1 μM of the test compound (to assess the recovery of protein synthesis in a stressed condition). Cells treated with Tg alone were used as controls.
After the 2 hours treatments, media were replaced by adding 10 μg/ml puromycin (Sigma Aldrich) in complete media for 30 min. Media were removed and cells were lysed with SDS-PAGE lysis buffer. Lysates were transferred to 1.5 ml tubes and sonicated for 3 minutes and total protein amount were quantified using BCA Protein Assay Kit (Pierce). Equal amount of protein (30 μg) was loaded on SDS-PAGE gels. Proteins were transferred onto 0.2 μm PVDF membranes (BioRad) and probed with primary antibodies diluted in Tris-buffered saline supplemented with 0.1% Tween 20 and 3% bovine serum albumin.
as §1, with “Puromycin (12D10)” for “ATF4 (11815)”, “(Merck Millipore).” for “(Cell Signaling Technologies).”, “HRP-conjugated” for “horseradish peroxidase (HRP)-conjugated”
Percent increase of protein synthesis in unstressed cells (without Tg treatment) in the presence of media alone or certain test compounds is shown in Table 3 and FIG. 2. The percentage levels were normalized to the media alone condition, which correspond to 100% protein synthesis.
Percent recovery of protein synthesis in stressed cells (with Tg treatment) due to the test compounds at 100 nM or 1 μM is shown in FIGS. 3A and 3B, respectively, and in Table 3. The levels were normalized to the media alone and to Tg alone conditions, which correspond to 100% and 0% respectively.

[1] = CHO cells stressed with 300 nM Tg, Tg alone 0%
[2] = CHO cells stressed with 300 nM Tg, Tg alone 0%, read-out: % Recovery of protein expression (1 μM test compound)
[3] = unstressed CHO cells, 2 h, read-out: % Protein expression relative to untreated (1 μM test compound)

Structure (SMILES)	inhibition at 0.1 µM (ATF4)	inhibition at 1 µM (ATF4)	IC50 (ATF4)	activity at 0.1 µM (CHO cells; [1])	activity at 1 µM (CHO cells; [2])	activity at 1 µM (CHO cells; [3])	protein translation (CHO cells)	protein synthesis in a cell versus ATF4 translation (CHO cells)
O=C(COc1ccc(Cl)cc1)N[C@H]1CC[C@H](NC[C@H](O)COc2ccc(Cl)cc2)CC1 (single isomer, unassigned) [Compound 4, (−)-2-(4-chlorophenoxy)-N-(4-((3-(4-chlorophenoxy)-2-hydroxypropyl)amino)cyclohexyl)acetamide]	31%	54%	–	–	–	–	–	–
O=C(COc1ccc(Cl)c(F)c1)N[C@H]1CC[C@H](NC[C@@H](O)COc2ccc(Cl)c(F)c2)CC1 (single isomer, unassigned) [Compound 6, (+)-2-(4-chloro-3-fluorophenoxy)-N-(4-((3-(4-chloro-3-fluorophenoxy)-2-hydroxypropyl)amino)cyclohexyl)acetamide]	52%	83%	82.8 nM	60.2%	197%	195%	–	–
O=C(COc1ccc(Cl)c(F)c1)N[C@H]1CC[C@H](NC[C@H](O)COc2ccc(Cl)c(F)c2)CC1 (single isomer, unassigned) [Compound 7, (−)-2-(4-chloro-3-fluorophenoxy)-N-(4-((3-(4-chloro-3-fluorophenoxy)-2-hydroxypropyl)amino)cyclohexyl)acetamide]	0%	0%	–	–	–	–	–	–
O=C(COc1ccc(Cl)cc1)NC1CCN(C[C@@H](O)COc2ccc(Cl)cc2)CC1 (single isomer, unassigned) [Compound 16, (+)-2-(4-chlorophenoxy)-N-(1-(3-(4-chlorophenoxy)-2-hydroxypropyl)piperidin-4-yl)acetamide]	0%	38%	–	–	–	–	–	–
O=C(COc1ccc(Cl)c(F)c1)NC1CCN(C[C@@H](O)COc2ccc(Cl)c(F)c2)CC1 (single isomer, unassigned) [Compound 27, (+)-2-(4-chloro-3-fluorophenoxy)-N-(1-(3-(4-chloro-3-fluorophenoxy)-2-hydroxypropyl)piperidin-4-yl)acetamide]	54%	73%	–	–	–	–	–	–
O=C(NC1CCN(C[C@H](O)COc2ccc(Cl)c(F)c2)CC1)c1cc2cc(Cl)ccc2o1 (single isomer, unassigned) [Compound 149, (+)-5-chloro-N-(1-(3-(4-chloro-3-fluorophenoxy)-2-hydroxypropyl)piperidin-4-yl)benzofuran-2-carboxamide]	62%	96%	29.9 nM	107%	281%	138%	–	–
O=C(NC1CCN(C[C@@H](O)COc2ccc(Cl)c(F)c2)CC1)c1cc2cc(Cl)ccc2o1 (single isomer, unassigned) [Compound 150, (−)-5-chloro-N-(1-(3-(4-chloro-3-fluorophenoxy)-2-hydroxypropyl)piperidin-4-yl)benzofuran-2-carboxamide]	0%	43%	–	61%	200%	184%	increased protein translation	increase protein synthesis in a cell without full inhibition of ATF4 translation
O=C(NC1CCN(C[C@@H](O)COc2ccc(Cl)c(F)c2)CC1)c1ccc2cc(Cl)ccc2n1 (single isomer, unassigned) [Compound 153, (−)-6-chloro-N-(1-(3-(4-chloro-3-fluorophenoxy)-2-hydroxypropyl)piperidin-4-yl)quinoline-2-carboxamide]	0%	0%	–	51.5%	236%	323%	increased protein translation	increase protein synthesis in a cell without full inhibition of ATF4 translation
O=C(N[C@H]1CC[C@H](NC[C@@H](O)COc2ccc(Cl)c(F)c2)CC1)c1cc2cc(Cl)ccc2o1 (single isomer, unassigned) [Compound 154, (+)-trans-5-chloro-N-(4-((3-(4-chloro-3-fluorophenoxy)-2-hydroxypropyl)amino)cyclohexyl)benzofuran-2-carboxamide]	92%	96%	13.7 nM	96.3%	234%	188%	–	–
O=C(COc1ccc(Cl)cc1)N[C@H]1CC[C@H](NC(=O)[C@@H]2CNc3cc(Cl)ccc3O2)CC1 (single isomer, unassigned) [Compound 158, (+)-trans-6-chloro-N-(4-(2-(4-chlorophenoxy)acetamido)cyclohexyl)-3,4-dihydro-2H-benzo[b][1,4]oxazine-2-carboxamide]	96%	96%	9.1 nM	86.8%	199%	168%	–	–
O=C(COc1ccc(Cl)cc1)NC1CCN(CC(O)COc2ccc(Cl)cc2)CC1 (single isomer, unassigned; (-)) [Compound 15, (−)-2-(4-chlorophenoxy)-N-(1-(3-(4-chlorophenoxy)-2-hydroxypropyl)piperidin-4-yl)acetamide]	77%	99%	52.1 nM	35.6%	159%	68.3%	–	–
O=C(COc1ccc(Cl)cc1)N[C@H]1CC[C@H](NC(=O)C(O)COc2ccc(Cl)cc2)CC1 (stereo partly drawn) [Compound 8, trans-3-(4-chlorophenoxy)-N-(4-(2-(4-chlorophenoxy)acetamido)cyclohexyl)-2-hydroxypropanamide]	0%	0%	–	–	–	–	–	–
O=C(COc1ccc(Cl)c(F)c1)N[C@H]1CC[C@H](NC(=O)C(O)COc2ccc(Cl)c(F)c2)CC1 (stereo partly drawn) [Compound 9, trans-3-(4-chloro-3-fluorophenoxy)-N-(4-(2-(4-chloro-3-fluorophenoxy)acetamido)cyclohexyl)-2-hydroxypropanamide]	12%	20%	–	–	–	–	–	–
O=C(COc1ccc(Cl)c(F)c1)N[C@H]1CCCN(CC(O)COc2ccc(Cl)c(F)c2)C1 (stereo partly drawn) [Compound 11, 2-(4-chloro-3-fluorophenoxy)-N-((3S)-1-(3-(4-chloro-3-fluorophenoxy)-2-hydroxypropyl)piperidin-3-yl)acetamide]	0%	0%	–	–	–	–	–	–
O=C(COc1ccc(Cl)c(F)c1)N[C@@H]1CCCN(CC(O)COc2ccc(Cl)c(F)c2)C1 (stereo partly drawn) [Compound 12, 2-(4-chloro-3-fluorophenoxy)-N-((3R)-1-(3-(4-chloro-3-fluorophenoxy)-2-hydroxypropyl)piperidin-3-yl)acetamide]	0%	0%	–	–	–	–	–	–
O=C(COc1ccc(Cl)c(F)c1)N1CCC(NCC(O)COc2ccc(Cl)c(F)c2)CC1 (centres unmarked) [Compound 14, 2-(4-chloro-3-fluorophenoxy)-1-(4-((3-(4-chloro-3-fluorophenoxy)-2-hydroxypropyl)amino)piperidin-1-yl)ethan-1-one]	0%	0%	–	–	–	–	–	–
